Laboratory results reported in patent US8163771B2, “11 β-HSD1 modulators” (Exelixis, Inc., priority 2008, dated 2012).

These molecules were tested against T1, recombinant human 11 β-HSD1 (Homo sapiens, UniProt P28845) (assay: 11 β-HSD1 SPA Assay (Scintillation Proximity Assay)).
T1 construct: made in house; host or cells: E. coli
Type: biochemical
Method in brief: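 Scintillation proximity read-out of cortisol formed from 40 nM [3H]cortisone by purified recombinant human enzyme (30-100 nM, E. coli) with 1 mM NADPH, pH7.4, 2 hours at room temperature; beads with cortisol antibody and glycyrrhetinic acid stop the reaction, read next day. IC50 derived from inhibition normalised to background and maximal wells.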

T1 sequence (P28845 whole entry): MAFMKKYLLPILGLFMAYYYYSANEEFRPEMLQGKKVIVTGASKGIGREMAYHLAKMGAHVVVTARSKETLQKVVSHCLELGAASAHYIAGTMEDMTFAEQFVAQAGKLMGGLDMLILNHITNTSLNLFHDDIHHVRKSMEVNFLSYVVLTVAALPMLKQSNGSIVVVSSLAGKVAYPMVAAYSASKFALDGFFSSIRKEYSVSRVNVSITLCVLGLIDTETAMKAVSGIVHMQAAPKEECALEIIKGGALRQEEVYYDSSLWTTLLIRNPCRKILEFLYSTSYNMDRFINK

`CC(C)(Oc1ccc(Cl)cc1Cl)C(=O)N[C@H]1C[C@H]2CC[C@@H](C1)N2c1ccc(NC(=O)CC(F)(F)F)cc1F` [Example 139, N-{4-[3-endo-({2-[(2,4-dichlorophenyl)oxy]-2-methylpropanoyl}amino)-8-azabicyclo[3.2.1]oct-8-yl]-3-fluorophenyl}-3,3,3-trifluoropropanamide] and `CC(C)(Oc1ccc(Cl)cc1Cl)C(=O)N[C@H]1C[C@H]2CC[C@@H](C1)N2c1ccc(NC(=O)CC(F)(F)F)cn1` [Example 147, N-{6-[3-endo-({2-[(2,4-dichlorophenyl)oxy]-2-methylpropanoyl}amino)-8-azabicyclo[3.2.1]oct-8-yl]pyridin-3-yl}-3,3,3-trifluoropropanamide] cannot be ordered by IC50: less than 0.2 µM for the first, less than 0.2 µM for the second.

`CC(C)(Oc1ccc(Cl)cc1Cl)C(=O)N[C@H]1C[C@H]2CC[C@@H](C1)N2c1ccc(S(C)(=O)=O)cn1` [Example 140, 2-[(2,4-dichlorophenyl)oxy]-2-methyl-N-{8-[5-(methylsulfonyl)pyridin-2-yl]-8-azabicyclo[3.2.1]oct-3-endo-yl}propanamide] and `CC(C)(Oc1ccc(F)cc1Cl)C(=O)N[C@H]1C[C@H]2CC[C@@H](C1)N2c1ccc(S(C)(=O)=O)cn1` [Example 155, 2-[(2-chloro-4-fluorophenyl)oxy]-2-methyl-N-{8-[5-(methylsulfonyl)pyridin-2-yl]-8-azabicyclo[3.2.1]oct-3-endo-yl}propanamide] cannot be ordered by IC50: less than 0.2 µM for the first, less than 0.2 µM for the second.

`NC(=O)c1ccc(N2[C@@H]3CC[C@H]2C[C@@H](NC(=O)C2(c4ccc(F)c(F)c4)CC2)C3)nc1` [Example 141, 6-[3-endo-({[1-(3,4-difluorophenyl)cyclopropyl]carbonyl}amino)-8-azabicyclo[3.2.1]oct-8-yl]pyridine-3-carboxamide] and `CC(C)(C(=O)N[C@H]1C[C@H]2CC[C@@H](C1)N2c1ccc(C(N)=O)cn1)c1ccc(F)c(F)c1` [Example 165, 6-(3-endo-{[2-(3,4-difluorophenyl)-2-methylpropanoyl]amino}-8-azabicyclo[3.2.1]oct-8-yl)pyridine-3-carboxamide] cannot be ordered by IC50: less than 0.2 µM for the first, less than 0.2 µM for the second.

`CC(C)(Oc1ncc(Cl)cc1F)C(=O)N[C@H]1C[C@H]2CC[C@@H](C1)N2c1ccc(C(N)=O)cn1` [Example 142, 6-[3-endo-({2-[(5-chloro-3-fluoropyridin-2-yl)oxy]-2-methylpropanoyl}amino)-8-azabicyclo[3.2.1]oct-8-yl]pyridine-3-carboxamide] and `CC(C)(Oc1ncc(C(F)(F)F)cc1Cl)C(=O)N[C@H]1C[C@H]2CC[C@@H](C1)N2c1ccc(C(N)=O)cn1` [Example 149, 6-{3-endo-[(2-{[3-chloro-5-(trifluoromethyl)pyridin-2-yl]oxy}-2-methylpropanoyl)amino]-8-azabicyclo[3.2.1]oct-8-yl}pyridine-3-carboxamide] cannot be ordered by IC50: less than 0.2 µM for the first, less than 0.2 µM for the second.

`CC(C)(Oc1ccc(Cl)cc1Cl)C(=O)N[C@H]1C[C@H]2CC[C@@H](C1)N2c1cc(C(=O)NC2CC2)ccn1` [Example 143, N-cyclopropyl-2-[3-endo-({2-[(2,4-dichlorophenyl)oxy]-2-methylpropanoyl}amino)-8-azabicyclo[3.2.1]oct-8-yl]pyridine-4-carboxamide] and `CC(C)(Oc1ccc(Cl)cc1Cl)C(=O)N[C@H]1C[C@H]2CC[C@@H](C1)N2c1ccc(C(=O)NC2CC2)nc1` [Example 163, N-cyclopropyl-5-[3-endo-({2-[(2,4-dichlorophenyl)oxy]-2-methylpropanoyl}amino)-8-azabicyclo[3.2.1]oct-8-yl]pyridine-2-carboxamide] cannot be ordered by IC50: less than 2 µM for the first, less than 0.2 µM for the second.

`CC(C)(Oc1ccc(Cl)cc1C(F)(F)F)C(=O)N[C@H]1C[C@H]2CC[C@@H](C1)N2c1ccc(C(=O)NCC(F)(F)F)cn1` [Example 144, 6-{3-endo-[(2-{[4-chloro-2-(trifluoromethyl)phenyl]oxy}-2-methylpropanoyl)amino]-8-azabicyclo[3.2.1]oct-8-yl}-N-(2,2,2-trifluoroethyl)pyridine-3-carboxamide] and `CC(C)(Oc1ccc(F)cc1C(F)(F)F)C(=O)N[C@H]1C[C@H]2CC[C@@H](C1)N2c1ccc(C(=O)NCC(F)(F)F)cn1` [Example 145, 6-{3-endo-[(2-{[4-fluoro-2-(trifluoromethyl)phenyl]oxy}-2-methylpropanoyl)amino]-8-azabicyclo[3.2.1]oct-8-yl}-N-(2,2,2-trifluoroethyl)pyridine-3-carboxamide] cannot be ordered by IC50: less than 0.2 µM for the first, less than 0.2 µM for the second.

`CC(C)(Oc1ccc(Cl)cc1Cl)C(=O)N[C@H]1C[C@H]2CC[C@@H](C1)N2c1ccc(NC(=O)C(F)(F)F)cn1` [Example 146, 2-[(2,4-dichlorophenyl)oxy]-2-methyl-N-(8-{5-[(trifluoroacetyl)amino]pyridin-2-yl}-8-azabicyclo[3.2.1]oct-3-endo-yl)propanamide] and `CC(C)(Oc1ccc(Cl)cc1Cl)C(=O)N[C@H]1C[C@H]2CC[C@@H](C1)N2c1ncc(C(=O)NCC(F)(F)F)cc1F` [Example 160, 6-[3-endo-({2-[(2,4-dichlorophenyl)oxy]-2-methylpropanoyl}amino)-8-azabicyclo[3.2.1]oct-8-yl]-5-fluoro-N-(2,2,2-trifluoroethyl)pyridine-3-carboxamide] cannot be ordered by IC50: less than 0.2 µM for the first, less than 0.2 µM for the second.

`O=C(NC1CC1)c1ccc(N2[C@@H]3CC[C@H]2C[C@@H](NC(=O)C2(c4ccc(Cl)cc4)CC2)C3)c(F)c1` [Example 148, 4-[3-endo-({[1-(4-chlorophenyl)cyclopropyl]carbonyl}amino)-8-azabicyclo[3.2.1]oct-8-yl]-N-cyclopropyl-3-fluorobenzamide] and `CC(C)(Oc1ccc(Cl)cc1Cl)C(=O)N[C@H]1C[C@H]2CC[C@@H](C1)N2c1cccc(S(C)(=O)=O)c1` [Example 156, 2-[(2,4-dichlorophenyl)oxy]-2-methyl-N-{8-[3-(methylsulfonyl)phenyl]-8-azabicyclo[3.2.1]oct-3-endo-yl}propanamide] cannot be ordered by IC50: less than 0.2 µM for the first, less than 2 µM for the second.

`CC(C)(Oc1ccc(C(F)(F)F)cn1)C(=O)N[C@H]1C[C@H]2CC[C@@H](C1)N2c1ccc(C(N)=O)cn1` [Example 150] and `CC(C)(Oc1ccc(C(F)(F)F)cn1)C(=O)N[C@H]1C[C@H]2CC[C@@H](C1)N2c1ccc(C(=O)NCC(F)(F)F)cn1` [Example 152, 6-{3-endo-[(2-methyl-2-{[5-(trifluoromethyl)pyridin-2-yl]oxy}propanoyl)amino]-8-azabicyclo[3.2.1]oct-8-yl}-N-(2,2,2-trifluoroethyl)pyridine-3-carboxamide] cannot be ordered by IC50: less than 0.2 µM for the first, less than 2 µM for the second.

`CC(C)(Oc1ncc(C(F)(F)F)cc1Cl)C(=O)N[C@H]1C[C@H]2CC[C@@H](C1)N2c1ccc(C(=O)NCC(F)(F)F)cn1` [Example 151, 6-{3-endo-[(2-{[3-chloro-5-(trifluoromethyl)pyridin-2-yl]oxy}-2-methylpropanoyl)amino]-8-azabicyclo[3.2.1]oct-8-yl}-N-(2,2,2-trifluoroethyl)pyridine-3-carboxamide] and `CC(C)(Oc1ncc(Cl)cc1Cl)C(=O)N[C@H]1C[C@H]2CC[C@@H](C1)N2c1ncc(C(=O)NCC(F)(F)F)cc1F` [Example 161, 6-[3-endo-({2-[(3,5-dichloropyridin-2-yl)oxy]-2-methylpropanoyl}amino)-8-azabicyclo[3.2.1]oct-8-yl]-5-fluoro-N-(2,2,2-trifluoroethyl)pyridine-3-carboxamide] cannot be ordered by IC50: less than 0.2 µM for the first, less than 0.2 µM for the second.

`CC(C)(Oc1ccc(F)c(Cl)c1Cl)C(=O)N[C@H]1C[C@H]2CC[C@@H](C1)N2c1ccc(S(C)(=O)=O)cn1` [Example 153, 2-[(2,3-dichloro-4-fluorophenyl)oxy]-2-methyl-N-{8-[5-(methylsulfonyl)pyridin-2-yl]-8-azabicyclo[3.2.1]oct-3-endo-yl}propanamide] and `CC(C)(Oc1cc(Cl)c(F)cc1Cl)C(=O)N[C@H]1C[C@H]2CC[C@@H](C1)N2c1ccc(S(C)(=O)=O)cn1` [Example 154, 2-[(2,5-dichloro-4-fluorophenyl)oxy]-2-methyl-N-{8-[5-(methylsulfonyl)pyridin-2-yl]-8-azabicyclo[3.2.1]oct-3-endo-yl}propanamide] cannot be ordered by IC50: less than 0.2 µM for the first, less than 0.2 µM for the second.

`CC(C)(Oc1cc(Cl)c(F)cc1Cl)C(=O)N[C@H]1C[C@H]2CC[C@@H](C1)N2c1ccc(S(N)(=O)=O)cn1` [Example 157, N-{8-[5-(aminosulfonyl)pyridin-2-yl]-8-azabicyclo[3.2.1]oct-3-endo-yl}-2-[(2,5-dichloro-4-fluorophenyl)oxy]-2-methylpropanamide] and `CC(C)(Oc1ccc(F)cc1Cl)C(=O)N[C@H]1C[C@H]2CC[C@@H](C1)N2c1ccc(S(N)(=O)=O)cn1` [Example 158, N-{8-[5-(aminosulfonyl)pyridin-2-yl]-8-azabicyclo[3.2.1]oct-3-endo-yl}-2-[(2-chloro-4-fluorophenyl)oxy]-2-methylpropanamide] cannot be ordered by IC50: less than 0.2 µM for the first, less than 0.2 µM for the second.

`CC(C)(Oc1ccc(F)cc1Cl)C(=O)N[C@H]1C[C@H]2CC[C@@H](C1)N2c1ncc(C(=O)NCC(F)(F)F)cc1F` [Example 159, 6-[3-endo-({2-[(2-chloro-4-fluorophenyl)oxy]-2-methylpropanoyl}amino)-8-azabicyclo[3.2.1]oct-8-yl]-5-fluoro-N-(2,2,2-trifluoroethyl)pyridine-3-carboxamide] and `CC(C)(Oc1cc(Cl)c(F)cc1Cl)C(=O)N[C@H]1C[C@H]2CC[C@@H](C1)N2c1ncc(C(=O)NCC(F)(F)F)cc1F` [Example 162, 6-[3-endo-({2-[(2,5-dichloro-4-fluorophenyl)oxy]-2-methylpropanoyl}amino)-8-azabicyclo[3.2.1]oct-8-yl]-5-fluoro-N-(2,2,2-trifluoroethyl)pyridine-3-carboxamide] cannot be ordered by IC50: less than 0.2 µM for the first, less than 0.2 µM for the second.

In the case of `CC(C)(Oc1ccccc1C(F)(F)F)C(=O)N[C@H]1C[C@H]2CC[C@@H](C1)N2c1ccc(C(N)=O)cn1` [Example 164, 6-{3-endo-[(2-methyl-2-{[2-(trifluoromethyl)phenyl]oxy}propanoyl)amino]-8-azabicyclo[3.2.1]oct-8-yl}pyridine-3-carboxamide], the IC50 is reported as less than 0.2 µM.
